Measurements reported in ChEMBL document CHEMBL2010711, “Synthesis and comparative evaluation of 4-oxa- and 4-aza-podophyllotoxins as antiproliferative microtubule destabilizing agents” (Bioorg Med Chem Lett, 2012).
Active and inactive are the calls of the source.

Experiments:
HCT-15 = assay: Cytotoxicity against human HCT15 cells after 48 hrs by trypan blue dye exclusion assay; type: functional; details: HCT-15, 48 h
BT-549 = assay: Cytotoxicity against human BT549 cells after 48 hrs by trypan blue dye exclusion assay; type: functional; details: BT-549, 48 h
IGROV-1 = assay: Cytotoxicity against human IGROV1 cells after 48 hrs by trypan blue dye exclusion assay; type: functional; details: IGROV-1, 48 h
M14 = assay: Cytotoxicity against human M14 cells after 48 hrs by trypan blue dye exclusion assay; type: functional; details: M14, 48 h
SN12C = assay: Cytotoxicity against human SN12C cells after 48 hrs by trypan blue dye exclusion assay; type: functional
Paracentrotus lividus [1] = assay: Antimitotic activity against Paracentrotus lividus embryo assessed as cleavage alteration at 2 fold less effective threshold concentration after 2.5 to 6 hrs; type: functional, organism-based
OVCAR-4 = assay: Cytotoxicity against human OVCAR4 cells after 48 hrs by trypan blue dye exclusion assay; type: functional; details: OVCAR-4, 48 h
SF-539 = assay: Cytotoxicity against human SF539 cells after 48 hrs by trypan blue dye exclusion assay; type: functional; details: SF-539, 48 h
COLO 205 = assay: Cytotoxicity against human COLO205 cells after 48 hrs by trypan blue dye exclusion assay; type: functional; details: COLO 205, 48 h
SK-OV-3 = assay: Cytotoxicity against human SKOV3 cells after 48 hrs by trypan blue dye exclusion assay; type: functional; details: SK-OV-3, 48 h
RPMI-8226 = assay: Cytotoxicity against human RPMI8226 cells after 48 hrs by trypan blue dye exclusion assay; type: functional; details: RPMI-8226, 48 h
UACC-257 = assay: Cytotoxicity against human UACC257 cells after 48 hrs by trypan blue dye exclusion assay; type: functional; details: UACC-257, 48 h
OVCAR-3 = assay: Cytotoxicity against human OVCAR3 cells after 48 hrs by trypan blue dye exclusion assay; type: functional; details: OVCAR-3, 48 h
NCI-H522 = assay: Cytotoxicity against human NCI-H522 cells after 48 hrs by trypan blue dye exclusion assay; type: functional; details: NCI-H522, 48 h
UACC-62 = assay: Cytotoxicity against human UACC62 cells after 48 hrs by trypan blue dye exclusion assay; type: functional; details: UACC-62, 48 h
SK-MEL-28 = assay: Cytotoxicity against human SK-MEL-28 cells after 48 hrs by trypan blue dye exclusion assay; type: functional; details: SK-MEL-28, 48 h
SF-268 = assay: Cytotoxicity against human SF268 cells after 48 hrs by trypan blue dye exclusion assay; type: functional; details: SF-268, 48 h
Malme-3M = assay: Cytotoxicity against human MALME-3M cells after 48 hrs by trypan blue dye exclusion assay; type: functional
NCI-H460 = assay: Cytotoxicity against human NCI-H460 cells after 48 hrs by trypan blue dye exclusion assay; type: functional; details: NCI-H460, 48 h
Paracentrotus lividus [2] = assay: Antimitotic activity against Paracentrotus lividus embryo assessed as cleavage arrest at 2 fold less effective threshold concentration after 2.5 to 6 hrs; type: functional, organism-based
NCI/ADR-RES = assay: Cytotoxicity against human NCI/ADR-RES cells after 48 hrs by trypan blue dye exclusion assay; type: functional
SNB-75 = assay: Cytotoxicity against human SNB75 cells after 48 hrs by trypan blue dye exclusion assay; type: functional; details: SNB-75, 48 h
DU-145 = assay: Cytotoxicity against human DU145 cells after 48 hrs by trypan blue dye exclusion assay; type: functional; details: DU-145, 48 h
A549 = assay: Cytotoxicity against human A549 cells after 48 hrs by trypan blue dye exclusion assay; type: functional; details: A549, 48 h
PC-3 = assay: Cytotoxicity against human PC3 cells after 48 hrs by trypan blue dye exclusion assay; type: functional; details: PC-3, 48 h
SNB-19 = assay: Cytotoxicity against human SNB19 cells after 48 hrs by trypan blue dye exclusion assay; type: functional; details: SNB-19, 48 h
[3] = Cytotoxicity against human Hs 578T cells after 48 hrs by trypan blue dye exclusion assay; type: functional
U-251 = assay: Cytotoxicity against human U251 cells after 48 hrs by trypan blue dye exclusion assay; type: functional; details: U-251, 48 h
T47D = assay: Cytotoxicity against human T47D cells after 48 hrs by trypan blue dye exclusion assay; type: functional
MDA-MB-435 = assay: Cytotoxicity against human MDA-MB-435 cells after 48 hrs by trypan blue dye exclusion assay; type: functional; details: MDA-MB-435, 48 h
MDA-MB-231 = assay: Cytotoxicity against human MDA-MB-231 cells after 48 hrs by trypan blue dye exclusion assay; type: functional; details: MDA-MB-231, 48 h
EKVX = assay: Cytotoxicity against human EKVX cells after 48 hrs by trypan blue dye exclusion assay; type: functional
HCT-116 = assay: Cytotoxicity against human HCT116 cells after 48 hrs by trypan blue dye exclusion assay; type: functional; details: HCT-116, 48 h
NCI-H226 = assay: Cytotoxicity against human NCI-H226 cells after 48 hrs by trypan blue dye exclusion assay; type: functional; details: NCI-H226, 48 h
MCF7 = assay: Cytotoxicity against human MCF7 cells after 48 hrs by trypan blue dye exclusion assay; type: functional; details: MCF7, 48 h
UO-31 = assay: Cytotoxicity against human UO31 cells after 48 hrs by trypan blue dye exclusion assay; type: functional; details: UO-31, 48 h
OVCAR-8 = assay: Cytotoxicity against human OVCAR8 cells after 48 hrs by trypan blue dye exclusion assay; type: functional; details: OVCAR-8, 48 h
LOX IMVI = assay: Cytotoxicity against human LOXIMVI cells after 48 hrs by trypan blue dye exclusion assay; type: functional
HOP-92 = assay: Cytotoxicity against human HOP92 cells after 48 hrs by trypan blue dye exclusion assay; type: functional; details: HOP-92, 48 h
SK-MEL-2 = assay: Cytotoxicity against human SK-MEL-2 cells after 48 hrs by trypan blue dye exclusion assay; type: functional; details: SK-MEL-2, 48 h
NCI-H322M = assay: Cytotoxicity against human NCI-H322M cells after 48 hrs by trypan blue dye exclusion assay; type: functional
MDA-MB-468 = assay: Cytotoxicity against human MDA-MB-468 cells after 48 hrs by trypan blue dye exclusion assay; type: functional; details: MDA-MB-468, 48 h
SF-295 = assay: Cytotoxicity against human SF295 cells after 48 hrs by trypan blue dye exclusion assay; type: functional; details: SF-295, 48 h
A498 = assay: Cytotoxicity against human A498 cells after 48 hrs by trypan blue dye exclusion assay; type: functional; details: A498, 48 h
HCC 2998 = assay: Cytotoxicity against human HCC2998 cells after 48 hrs by trypan blue dye exclusion assay; type: functional; details: HCC 2998, 48 h
SK-MEL-5 = assay: Cytotoxicity against human SK-MEL-5 cells after 48 hrs by trypan blue dye exclusion assay; type: functional; details: SK-MEL-5, 48 h
HT-29 = assay: Cytotoxicity against human HT-29 cells after 48 hrs by trypan blue dye exclusion assay; type: functional; details: HT-29, 48 h
CAKI-1 = assay: Cytotoxicity against human CAKI-1 cells after 48 hrs by trypan blue dye exclusion assay; type: functional; details: CAKI-1, 48 h
CCRF-CEM = assay: Cytotoxicity against human CCRF-CEM cells after 48 hrs by trypan blue dye exclusion assay; type: functional
HL-60(TB) = assay: Cytotoxicity against human HL-60(TB) cells after 48 hrs by trypan blue dye exclusion assay; type: functional; details: HL-60, 48 h
MOLT-4 = assay: Cytotoxicity against human MOLT4 cells after 48 hrs by trypan blue dye exclusion assay; type: functional; details: MOLT-4, 48 h
786-0 = assay: Cytotoxicity against human 786-0 cells after 48 hrs by trypan blue dye exclusion assay; type: functional; details: 786-0, 48 h
ACHN = assay: Cytotoxicity against human ACHN cells after 48 hrs by trypan blue dye exclusion assay; type: functional
NCI-H23 = assay: Cytotoxicity against human NCI-H23 cells after 48 hrs by trypan blue dye exclusion assay; type: functional; details: NCI-H23, 48 h
KM12 = assay: Cytotoxicity against human KM12 cells after 48 hrs by trypan blue dye exclusion assay; type: functional; details: KM12, 48 h
SW-620 = assay: Cytotoxicity against human SW620 cells after 48 hrs by trypan blue dye exclusion assay; type: functional; details: SW-620, 48 h
OVCAR-5 = assay: Cytotoxicity against human OVCAR5 cells after 48 hrs by trypan blue dye exclusion assay; type: functional; details: OVCAR-5, 48 h
RXF 393 = assay: Cytotoxicity against human RXF393 cells after 48 hrs by trypan blue dye exclusion assay; type: functional; details: RXF 393, 48 h
SR = assay: Cytotoxicity against human SR cells after 48 hrs by trypan blue dye exclusion assay; type: functional
TK-10 = assay: Cytotoxicity against human TK10 cells after 48 hrs by trypan blue dye exclusion assay; type: functional; details: TK-10, 48 h
Paracentrotus lividus [4] = assay: Microtubule destabilizing activity in Paracentrotus lividus embryo assessed as embryo spinning at 2 fold less effective threshold concentration after 15 mins to 20 hrs; type: functional, organism-based

## COc1ccc2c(c1)C(c1cc(OC)c3c(c1)OCO3)C1=C(COC1=O)N2 (stereo unspecified)
HCT-15
  GI50: 0.485 µM
BT-549
  GI50: 1.19 µM
IGROV-1
  GI50: 0.679 µM
M14
  GI50: 0.247 µM
SN12C
  GI50: 0.622 µM
Paracentrotus lividus [1]
  Activity: inactive
OVCAR-4
  GI50: 0.762 µM
SF-539
  GI50: 0.359 µM
COLO 205
  GI50: 0.268 µM
SK-OV-3
  GI50: 0.318 µM
RPMI-8226
  GI50: 0.494 µM
UACC-257
  GI50: > 100 µM
OVCAR-3
  GI50: 0.234 µM
NCI-H522
  GI50: 0.348 µM
UACC-62
  GI50: 0.0881 µM
SK-MEL-28
  GI50: 0.206 µM
SF-268
  GI50: 0.805 µM
Malme-3M
  GI50: > 100 µM
NCI-H460
  GI50: 19.2 µM
Paracentrotus lividus [2]
  Activity: inactive
NCI/ADR-RES
  GI50: 0.289 µM
SNB-75
  GI50: 0.0487 µM
DU-145
  GI50: 0.399 µM
A549
  GI50: 0.491 µM
PC-3
  GI50: 0.358 µM
SNB-19
  GI50: 0.518 µM
[3]
  GI50: 0.199 µM
U-251
  GI50: 0.805 µM
T47D
  GI50: 50.5 µM
MDA-MB-435
  GI50: 0.049 µM
MDA-MB-231
  GI50: 0.698 µM
EKVX
  GI50: 0.982 µM
HCT-116
  GI50: 0.457 µM
NCI-H226
  GI50: 23.3 µM
MCF7
  GI50: 0.254 µM
UO-31
  GI50: 33.1 µM
OVCAR-8
  GI50: 0.595 µM
LOX IMVI
  GI50: 0.702 µM
HOP-92
  GI50: 0.425 µM
SK-MEL-2
  GI50: 0.429 µM
NCI-H322M
  GI50: 0.283 µM
MDA-MB-468
  GI50: 0.23 µM
SF-295
  GI50: 0.0825 µM
A498
  GI50: 0.138 µM
HCC 2998
  GI50: 0.568 µM
SK-MEL-5
  GI50: 0.269 µM
HT-29
  GI50: 0.326 µM
CAKI-1
  GI50: 0.709 µM
CCRF-CEM
  GI50: 0.424 µM
HL-60(TB)
  GI50: 0.287 µM
MOLT-4
  GI50: 0.569 µM
786-0
  GI50: 0.594 µM
ACHN
  GI50: 1.57 µM
NCI-H23
  GI50: 0.317 µM
KM12
  GI50: 0.254 µM
SW-620
  GI50: 0.377 µM
OVCAR-5
  GI50: 0.629 µM
RXF 393
  GI50: 0.13 µM
SR
  GI50: 0.324 µM
TK-10
  GI50: > 100 µM
Paracentrotus lividus [4]
  Activity: inactive
